Source: patent US11931374B2, “Adenosine receptor modulators for the treatment of circadian rhythm disorders” (OXFORD UNIVERSITY INNOVATION LIMITED, priority 2016, dated 2024)

Assays:
Per2::Luc U2OS cells = test: Per2::Luc cell based circadian assay; conditions: for circadian period length: Per2::Luc U2OS cells, dose response
Description: U2OS cells stably transfected with a Per2::Luc reporter were cultured in DMEM supplemented with 10% FBS. For siRNA- and drug-based experiments, cells were seeded at 5,000 per well into white 384 well plates and transfected with 20 nM siRNA the next day. 2 days later, the cells were synchronized with 100 nM dexamethasone and the medium was replaced with phenol-red free DMEM supplemented with B-27 and 100 µM luciferin potassium salt, requisite drugs formulated in DMSO as a 1000× stock was added, and then sealed. Per2::Luc rhythms were recorded from a BMG Labtech Fluostar Omega plate reader maintained at 36° C. and readings taken from each well every hour. Data were then analysed using either Multicycle or Brass rhythm analysis software.
Period2::Luciferase (Per2::Luc) stable U2OS transfects were cultured, as described above. A Greiner Bio-One 384 Well Plate (Polystyrene, F-bottom), was then seeded at 6000 cells per 50 μl well. Following a 24 hour period, the cells were treated with 0.1% dexamethasone, a glucocorticoid hormone analogue known to reset intracellular circadian rhythms, for 1 hour. Subsequently, the dexamethasone-containing medium was removed, the cells were washed with PBS and luciferin and test drug containing medium was added. The cells were then assayed for luminescence over a period of 96 hours in the BMG FLUOstar OPTIMA Microplate Reader to observe the periodicity and amplitude of the luminescence values.

[1] = test system: STAR-PROM plasmid library; test: STAR-PROM transcription factor screening in U2OS cells; assay type: cell-based; conditions: siFos
Description: This was conducted as previously reported in Gerber et al., Cell. […] Briefly, U2OS cells were cultured in 6-well plates and transfected with 1 ug of the STAR-PROM plasmid library (library structure as in above reference). RNA was extracted at set time points and sequenced for the barcoded luciferase constructs and analysed with Galaxy (https://use.galaxy.org).

Per1/2 [2] = test: Sleep deprivation, Per1/2 expression within the SCN; assay type: in vivo; conditions: sleep deprivation decreases Per1/2 expression
CRE::Luc reporter = test: CRE-Luc luciferase assay in U2OS cells; assay type: cell-based
Description: At 60-80% confluence and >90% viability, the U2OS cells in the T-75 flask were washed twice with 6 ml phosphate-buffered saline (PBS) and subsequently treated with 4 ml of TrypLE™ Express trypsin replacement solution for 10 minutes. A Greiner Bio-One 96 Well Plate (white, TC treated), was then seeded at 8000 cells per well. Following 24 hours, the cells were transfected at 50-70% confluency with CRE-luc Vector generated in-house with Viafect transfection reagent at 1:4 ratio (100 ng DNA/well) following manufacturers recommendations.
24 hours after transfection, the medium in the 96 well plate was changed to a serum-free medium with 1 mM luciferin. The cells were then incubated in serum starvation conditions for 6-8 hours, this was optimised to yield the greatest signal strength and lowest noise when assayed with forskolin control. Following the incubation period, the CRE-Luc U2OS cells were treated with the appropriate drug and their luminescence values were measured after 6 hours in the BMG FLUOstar OPTIMA Microplate Reader. […] Unless stated otherwise, forskolin was used as a positive control, and 1% DMSO was used as a negative control.

C57Bl/6 mice [3] = test: Phase shifting of circadian activity in response to a light pulse with drug; assay type: in vivo; conditions: 1 mg/kg intraperitoneal before 30 min 400 lux light pulse at CT22
Description: Animals were maintained in a 12 h light (white) 12 h dark (grey) cycle and vehicle was administered just before a 30 min 400 lux light pulse (white bar) at time CT 22 (or 10 hours after lights off). All light cues were then removed to allow the animals free running clock to express. A gap in the lines on the day after the light pulse was administered indicates a phase shift.
Animals were maintained in a 12 h light (white) 12 h dark (grey) cycle and IB-MECA (1 mg/kg) was administered just before a 30 min 400 lux light pulse (white bar) at time CT 22 (or 10 hours after lights off).
Animals were housed under a reversed 12:12 LD cycle (400 lux from white LED lamps) with food and water ad libitum. For phase-shifting studies, C57Bl/6 mice were maintained on running wheels in light tight chambers on a 12:12 LD cycle (400 lux from white LED lamps) and injected with drug at the indicated time points. The drugs were formulated in a vehicle consisting of 5% Koliphor-HS15 (Sigma-Aldrich, UK) 5% Cyclodextran (Sigma-Aldrich, UK) in 0.9% saline. […] Where measuring phase-shifting, the mice were then placed in DD and allowed to free run for 14 days in DD, running wheel activity data was collected and analysed on Clocklab (Actimetrics, Wilmette, IL). […]

Per1 = Per1 mRNA levels in U2OS cells by qPCR; assay type: cell-based; conditions: U2OS cells, qPCR, concentration not given
Description: (§1) Total RNA was extracted using the microRNeasy column method (Qiagen, Hilden, Germany). Quality and quantity of RNA were measured using an Agilent Bioanalyzer and a Nanodrop1000 (Thermo Fisher Scientific, Waltham, MA USA), respectively.
(§2) RNA samples were prepared as described for microarray hybridisation. cDNA was synthesized with a qScript cDNA synthesis kit (Quanta Biosciences, Gaithersburg, MD), and quantitative PCR (qPCR) was conducted with Sybr green I and an SDS7700 thermal cycler (Applied Biosystems, Foster City, CA). Relative quantification of transcript levels was done as described previously (Peirson et al., Nucleic Acids Res. 2003 Jul. 15; 31(14):e73.). The geometric mean of a minimum of three housekeeping genes was used for normalization (Gapdh, ActB, GusB and Rps9 for example).
(§3) Cells from the U2OS (HTB-96) line were obtained, tested and identified. The cells were cultured in T-75 flasks, in Dulbecco's modified Eagle medium (DMEM) supplemented with 10% foetal bovine serum (FBS) and 1% penicillin-streptomycin (P/S) at 37° C. in a humidified atmosphere at 5% CO2. The cells were subcultured every 2 to 4 days in a 1:2 to 1:6 ratio, in accordance with the ATCC recommendations. The cells were counted using a haemocytometer, and their viability in a culture was maintained at above 95%, measured with a Presto Blue exclusion assay according to the manufacturer's specifications. Cells were transfected with siRNAs (typically at 50 nM concentrations, sequences as previously listed), the CRE::Luc (pGL4.29[luc2P/CRE/Hygro] Vector, encoding Luc2P […] under the control of a strong cAMP response element (CRE) promoter containing 3 CRE elements within its sequence; Promega) reporter vector or cAMP-GLOSensor plasmid (Promega) as per manufacturer's instructions using either Lipofectamine RNAimax (Invitrogen) or Lipofectamine3000 (Invitrogen).

[4] = test system: intracellular levels of cAMP; test: cAMP GloSensor assay in U2OS cells; assay type: cell-based
Description: The GloSensor™ cAMP Assay (Promega) was used for detecting changes in the intracellular levels of cAMP. Initially, a Greiner Bio-One 96 Well Plate (white, TC treated) was seeded at 8000 cells per 100 μl well, as described above. After 24 hours, the cells were transfected with the pGloSensor™ cAMP Plasmid using the Viafect transfection reagent as above. Between 24 and 48 hours later, allowing for the accumulation of the biosensor, the medium in the 96 well plate was changed to C02-Independent Medium supplemented with GlutaMAX™ (Life Technologies), 10% fetal bovine serum and 2% GloSensor™ cAMP Reagent. The plate was then stood for 2 hours at room temperature to equilibrate. Following the incubation period, the cells were treated with relevant drugs and their luminescence values were measured after 20 minutes in the BMG FLUOstar OPTIMA Microplate Reader, with forskolin as a positive control, and DMSO as a negative control.

Per2 = Per2 mRNA levels in U2OS cells by qPCR; assay type: cell-based; conditions: U2OS cells, qPCR, concentration not given
Description: as §1, §2, §3

C57Bl/6 mice [5] = test: Phase shifting of circadian activity by drug (running wheel); assay type: in vivo; conditions: administered at CT22, absence of a light pulse
Description: Animals were housed under a reversed 12:12 LD cycle (400 lux from white LED lamps) with food and water ad libitum. For phase-shifting studies, C57Bl/6 mice were maintained on running wheels in light tight chambers on a 12:12 LD cycle (400 lux from white LED lamps) and injected with drug at the indicated time points. The drugs were formulated in a vehicle consisting of 5% Koliphor-HS15 (Sigma-Aldrich, UK) 5% Cyclodextran (Sigma-Aldrich, UK) in 0.9% saline. This vehicle was warmed to 37° C. and the indicated drugs kept at a 100× stock in DMSO and mixed at the appropriate concentration to be administered at approximately 300 ul intraperitoneal injection (n=6 to 10). Where the time point of injection was in the dark, the procedure was conducted under dim red light. Where measuring phase-shifting, the mice were then placed in DD and allowed to free run for 14 days in DD, running wheel activity data was collected and analysed on Clocklab (Actimetrics, Wilmette, IL). For jet-lag studies, mice were maintained on running wheels in light tight chambers on a 12:12 LD cycle (400 lux from white LED lamps) and injected with drugs as above at ZT6 and the LD cycle was shifted 6 hours in advance. The onset of activity on each day was used to measure phase relative to the LD cycle.
Phase Shifting: C57Bl/6 male mice (80 days or older) were maintained on running wheels in light tight chambers on a 12:12 LD cycle (100 lux from white LED lamps) on stable entrainment, were released in complete darkness. At set times as indicated in the experiments, the animals received an intraperitoneal injection (300 ul) of drug constituted in sterile saline with 5% Cyclodextrin (Sigma-Aldrich) and 5% Koliphor (Sigma-Aldrich) and then allowed to free run in DD, running wheel activity data were collected and analysed on Clocklab (Actimetrics, Wilmette, IL).

Per1/2 [6] = test: Sleep deprivation, Per1/2 within the cortex; assay type: in vivo; conditions: data not shown

SMILES: Nc1nc2ccc(Cl)cc2c2nc(-c3ccco3)nn12 [CGS15943, 9-chloro-2-(furan-2-yl)-[1,2,4]triazolo[1,5-c]quinazolin-5-amine]
- period lengthening effect after knockdown of adenosine receptors (Per2::Luc U2OS cells; A1, A2A, A2B adenosine receptors in U2OS cells knocked down using siRNA): lost
- response of clone3 after siRNA-mediated silencing of Fos [1]: significantly reduced

SMILES: CCNC(=O)[C@H]1O[C@@H](n2cnc3c(N)nc(NCCc4ccc(CCC(=O)O)cc4)nc32)[C@H](O)[C@@H]1O.Cl [CGS21680, 3-[4-[2-[[6-amino-9-[(2R,3R,4S,5S)-5-(ethylcarbamoyl)-3,4-dihydroxy-oxolan-2-yl]purin-2-yl]amino]ethyl]phenyl]propanoic acid]
- Per1/2 expression within the SCN (Per1/2 [2]): increased Per1/2 expression

SMILES: CNC(=O)[C@H]1O[C@@H](n2cnc3c(NCc4cccc(I)c4)ncnc32)[C@H](O)[C@@H]1O [IB-MECA, 1-Deoxy-1-[6-[((3-Iodophenyl)methyl)amino]-9H-purin-9-yl]-N-methyl-β-D-ribofuranuronamide]
- CREB-driven transcription (CRE::Luc reporter) (CRE::Luc reporter): activation
- circadian period length (Per2::Luc U2OS cells): dose-dependent period length increases
- amplitude of the cellular clock (Per2::Luc U2OS cells; Per2::Luciferase construct, U2OS cells): increases in period and amplitude
- phase advance induced by light pulse (C57Bl/6 mice [3]): phase advance was lost
- Per1 mRNA levels / expression (Per1): elevated
- cAMP levels [4]: concurrent increase
- Per2 mRNA levels / expression (Per2): elevated
- phase shift of circadian activity (C57Bl/6 mice [5]): elicited a phase delay

SMILES: CCn1c(=O)c2c(nc(/C=C/c3ccc(OC)c(OC)c3)n2C)n(CC)c1=O [Istradefylline, 8-[(E)-2-(3,4-dimethoxyphenyl)vinyl]-1,3-diethyl-7-methyl-3,7-dihydro-1H-purine-2,6-dione]
- circadian period length (Per2::Luc U2OS cells): increased circadian period length in a dose dependent manner

SMILES: O=C(Cc1ccccc1)Nc1nc2ccc(Cl)cc2c2nc(-c3ccco3)nn12 [MRS1220, 9-Chloro-2-(2-furanyl)-5-((phenylacetyl)amino)-[1,2,4]triazolo[1,5-c]quinazoline]
- circadian period length (Per2::Luc U2OS cells): increased circadian period length in a dose dependent manner

SMILES: Nc1nc(NCCc2ccc(O)cc2)nc2nc(-c3ccco3)nn12 [ZM241385, 4-(2-(7-amino-2-(furan-2-yl)-[1,2,4]triazolo[1,5-a][1,3,5]triazin-5-ylamino)ethyl)phenol]
- circadian period length (Per2::Luc U2OS cells): increased circadian period length in a dose dependent manner

SMILES: CC#C[C@]1(O)CC[C@H]2[C@@H]3CCC4=CC(=O)CCC4=C3[C@@H](c3ccc(N(C)C)cc3)C[C@@]21C [mifepristone]
- sleep deprivation-induced increase of Per1/2 within the cortex (Per1/2 [6]): blunted this response
